The source of these data is publication PMC7539012, “Hyperphosphorylated tau aggregation and cytotoxicity modulators screen identified prescription drugs linked to Alzheimer's disease and cognitive functions” (Scientific Reports, 2020).

The structures appear in SMILES notation. Where a name gives a salt, the structure may show the parent alone. Where a SMILES comes first, the peptide text is derived from it. Bridges are numbered along the chain shown (N, C = ends). [ ]: non-standard residue; d: D form. The star is where a group is joined. X2 = CCC(C)C(N)C1=NC(C(=O)*)CS1; dOrn = NCCC[C@@H](N)C(=O)O

In the first assay the test system is T1, 1N4R p-tau.
T1 construct: made in house; host or cells: E. coli (PIMAX system)
Nature of the assay: p-tau aggregation modulator screen of 1280-compound library (ThS fluorescence net change over 16 h).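 For ThS net change: 30 µM compound with 6 µM p-tau over 16 h.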 The format is biochemical. Further details: key to PTAI>3SD: *: PTAI>3SD.
Details: not given
`CN1[C@@H]2CC[C@H]1C[C@@H](OC(=O)C(CO)c1ccccc1)C2` (stereo partly drawn) [Atropine sulfate monohydrate]: the ThS net change came out at 397.
The molecule `CCC1(C)CC(=O)NC(=O)C1` [Bemegride] came in with a ThS net change of 431.
As to `O=C(Oc1cccc2cccnc12)c1ccccc1` [Benzoxiquine], the ThS net change was determined as 287.

The same assay, now with this note: 1280-compound library screen; ThS fluorescence net change over 16 h.
Turning to `Nc1ncn(C2O[C@H](CO)[C@@H](O)[C@H]2O)c(=O)n1` (stereo partly drawn) [Azacytidine-5], the ThS net change came out at 405.
The same measure, in the same setting: the same measure for `CC1(C)S[C@@H]2[C@H](NC(=O)[C@H](NC(=O)N3CCNC3=O)c3ccccc3)C(=O)N2[C@H]1C(=O)O` [Azlocillin sodium salt]: 396.
In turn, `C[C@H]1[C@H](NC(=O)/C(=N\OC(C)(C)C(=O)O)c2csc(N)n2)C(=O)N1S(=O)(=O)O` [Aztreonam] yielded a ThS net change of 386.
Still for that read-out and setting: in the case of `O=C([O-])CCNC(=O)c1ccc(/N=N/c2ccc(O)c(C(=O)[O-])c2)cc1.[Na+].[Na+]` [Balsalazide Sodium] it was 399; in that of `CCOC(=O)[C@H](CCc1ccccc1)N[C@H]1CCc2ccccc2N(CC(=O)O)C1=O` [Benazepril HCl], 382.
`CCOC(=O)c1ccc(N)cc1` [Benzocaine] gave a ThS net change of 379.
As to `CCCCNc1ccc(C(=O)OCCOCCOCCOCCOCCOCCOCCOCCOCCOC)cc1` [Benzonatate], the ThS net change was 398.
For the molecule `NS(=O)(=O)c1cc2c(cc1Cl)N=C(CSCc1ccccc1)NS2(=O)=O` [Benzthiazide], the ThS net change is reported as 399.
In turn, `CC1(C)S[C@@H]2[C@H](NC(=O)Cc3ccccc3)C(=O)N2[C@H]1C(=O)O` [Benzylpenicillin sodium] gave a ThS net change of 398.
Molecule `CNCCc1ccccn1.CS(=O)(=O)O.CS(=O)(=O)O` [Betahistine mesylate] had a ThS net change of 378.
On to `C[C@H]1C[C@H]2[C@@H]3CCC4=CC(=O)C=C[C@]4(C)[C@@]3(F)[C@@H](O)C[C@]2(C)[C@@]1(O)C(=O)CO` [Betamethasone], for which the ThS net change worked out at 395.
Take `CC(C)(Oc1ccc(CCNC(=O)c2ccc(Cl)cc2)cc1)C(=O)O` [Bezafibrate]: the ThS net change worked out at 389.
In turn, `CC(O)(CS(=O)(=O)c1ccc(F)cc1)C(=O)Nc1ccc(C#N)c(C(F)(F)F)c1` (stereo not drawn) [Bicalutamide] had a ThS net change of 388.
Same read-out and setting: in the case of `OC(CCN1CCCCC1)(c1ccccc1)C1CC2C=CC1C2` (stereo not drawn) [Biperiden hydrochloride] it was 380; in that of `CC(=O)Oc1ccc(C(c2ccc(OC(C)=O)cc2)c2ccccn2)cc1` [Bisacodyl], 398.
The molecule `CC(C)NCC(O)COc1ccc(COCCOC(C)C)cc1` (stereo not drawn) [Bisoprolol fumarate] returned a ThS net change of 409.

The assay is the same for the next values; noted with them: 1280-compound library screen; […].
As for `OC(c1ccccc1)(c1ccccc1)C1CCNCC1` [Azacyclonol], the ThS net change turned out to be 400.
`NC(=NCc1ccccc1)NC(=O)c1nc(Cl)c(N)nc1N` [Benzamil hydrochloride] yielded a ThS net change of 379.
With `O=C(O)CCCC[C@@H]1SC[C@@H]2NC(=O)N[C@@H]21` [Biotin], the ThS net change is listed as 380.

Staying with this assay, now noted: flag: p-tau aggregation inhibitor, ThS net change more than 3 SD from mean.
Regarding `CN1CCCC(n2nc(Cc3ccc(Cl)cc3)c3ccccc3c2=O)CC1` (stereo not drawn) [Azelastine HCl], the “PTAI>3SD” value is given as “*”.

Still in this assay, the particulars now being: library screen, ThS fluorescence net change over 16 h with p-tau.
Take `COc1ccc(CCN2CCC(Nc3nc4ccccc4n3Cc3ccc(F)cc3)CC2)cc1` [Astemizole]: the ThS net change was 265.
The molecule `O=C1C(O)=C([C@H]2CC[C@H](c3ccc(Cl)cc3)CC2)C(=O)c2ccccc21` [Atovaquone] showed a ThS net change of 266.
`COc1ccc(C(=O)CC(=O)c2ccc(C(C)(C)C)cc2)cc1` [Avobenzone] returned a ThS net change of 250.
In the case of `CN1CCCC(n2nc(Cc3ccc(Cl)cc3)c3ccccc3c2=O)CC1` (stereo not drawn) [Azelastine HCl], the ThS net change stood at 0.
Molecule `CCCCOc1cc(C(=O)OCCN(CC)CC)ccc1N` [Benoxinate hydrochloride] showed a ThS net change of 312.
For the molecule `CN(C)CCCOc1nn(Cc2ccccc2)c2ccccc12` [Benzydamine hydrochloride], the ThS net change came to 310.

Staying with this assay, now noted: p-tau aggregation modulator screen of 1280-compound library; ThS fluorescence net change.
Consider `O=C1O[C@H]([C@@H](O)CO)C(O)=C1O` [Ascorbic acid], for which the ThS net change worked out at 361.
For `COc1ccc(CC2c3cc(OC)c(OC)cc3CC[N+]2(C)CCC(=O)OCCCCCOC(=O)CC[N+]2(C)CCc3cc(OC)c(OC)cc3C2Cc2ccc(OC)c(OC)c2)cc1OC` (stereo not drawn) [Atracurium besylate], the ThS net change is given as 370.
Consider `CC[P](CC)(CC)=[Au][S][C@@H]1O[C@H](COC(C)=O)[C@@H](OC(C)=O)[C@H](OC(C)=O)[C@H]1OC(C)=O` [Auranofin], for which the ThS net change is on record as 365.
Same read-out and setting: in the case of `Nc1nc2[nH]nnc2c(=O)[nH]1` [Azaguanine-8] it was 377; in that of `Cn1cnc([N+](=O)[O-])c1Sc1ncnc2nc[nH]c12` [Azathioprine], 367; in that of `CCOC(=O)OC(C)OC(=O)[C@@H]1N2C(=O)[C@@H](NC(=O)[C@H](N)c3ccccc3)[C@H]2SC1(C)C` (stereo partly drawn) [Bacampicillin hydrochloride], 371.
In turn, `CN(C)C(=O)Oc1cc(OC(=O)N(C)C)cc(C(O)CNC(C)(C)C)c1.Cl` (stereo not drawn) [Bambuterol hydrochloride] showed a ThS net change of 336.
For the molecule `CCC(=O)OCC(=O)[C@@]1(OC(=O)CC)[C@@H](C)C[C@H]2[C@@H]3CCC4=CC(=O)C=C[C@]4(C)[C@@]3(Cl)[C@@H](O)C[C@@]21C` [Beclomethasone dipropionate], the ThS net change is listed as 354.
The molecule `NS(=O)(=O)c1cc2c(cc1C(F)(F)F)NC(Cc1ccccc1)NS2(=O)=O` (stereo not drawn) [Bendroflumethiazide] showed a ThS net change of 357.
In turn, `CC(Cc1cccc(C(F)(F)F)c1)NCCOC(=O)c1ccccc1` (stereo not drawn) [Benfluorex] returned a ThS net change of 375.
In turn, `C/C(=C(\CCOP(=O)(O)O)SC(=O)c1ccccc1)N(C=O)Cc1cnc(C)nc1N` [Benfotiamine] came in with a ThS net change of 375.
Molecule `NC(CO)C(=O)NNCc1ccc(O)c(O)c1O` (stereo not drawn) [Benserazide hydrochloride] displayed a ThS net change of 372.
In turn, `C[N+](C)(CCOc1ccccc1)Cc1ccccc1.O=C([O-])c1cc2ccccc2cc1O` [Bephenium hydroxynaphthoate] gave a ThS net change of 370.
Molecule `Cl.N[C@@H]1CCCCN(c2c(F)cc3c(=O)c(C(=O)O)cn(C4CC4)c3c2Cl)C1` [Besifloxacin hydrochloride] displayed a ThS net change of 360.
In turn, `CC(C)NCC(O)COc1ccc(CCOCC2CC2)cc1` (stereo not drawn) [Betaxolol hydrochloride] displayed a ThS net change of 373.
On to `NCCc1cc[nH]n1` [Betazole hydrochloride], for which the ThS net change came out at 333.

The assay is the same for the next values; noted with them: p-tau aggregation modulator screen of 1280-compound library; […].
For `CN1CC2c3ccccc3Oc3ccc(Cl)cc3C2C1` (stereo not drawn) [Asenapine maleate], the ThS net change worked out at 375.
Same read-out and setting: in the case of `CC(C)(C)CC(C)(C)c1ccc(OCCOCC[N+](C)(C)Cc2ccccc2)cc1` [Benzethonium chloride] it was 365.

Staying with this assay, now noted: p-tau aggregation modulator screen of the compound library, ThS fluorescence net change.
As for `CCCNC(C)C(=O)Nc1c(C)csc1C(=O)OC` (stereo not drawn) [Articaine hydrochloride], the ThS net change is 450.
Regarding `CC(C)c1c(C(=O)Nc2ccccc2)c(-c2ccccc2)c(-c2ccc(F)cc2)n1CC[C@@H](O)C[C@@H](O)CC(=O)O` [Atorvastatin], the ThS net change turned out to be 488.
`CC[C@H](C)[C@H]1O[C@]2(C=C[C@@H]1C)C[C@@H]1C[C@@H](C/C=C(\C)[C@@H](O[C@H]3C[C@H](OC)[C@@H](O[C@H]4C[C@H](OC)[C@@H](O)[C@H](C)O4)[C@H](C)O3)[C@@H](C)/C=C/C=C3\CO[C@@H]4[C@H](O)C(C)=C[C@@H](C(=O)O1)[C@]34O)O2` [Avermectin B1a] yielded a ThS net change of 676.
`O=C(CCCN1CCN(c2ccccn2)CC1)c1ccc(F)cc1` [Azaperone]: the ThS net change came to 419.
On the same count and under the same terms, the same measure for `CCCC1C(=O)N2C(N(C)C)=Nc3ccc(C)cc3N2C1=O` (stereo not drawn) [Azapropazone]: 429; for `CN1CCC(=C2c3ccccc3CCc3cccnc32)CC1` [Azatadine maleate]: 417.
Regarding `CC[C@H]1OC(=O)[C@H](C)[C@@H](O[C@H]2C[C@@](C)(OC)[C@@H](O)[C@H](C)O2)[C@H](C)[C@@H](O[C@@H]2O[C@H](C)C[C@H](N(C)C)[C@H]2O)[C@](C)(O)C[C@@H](C)CN(C)[C@H](C)[C@@H](O)[C@]1(C)O` [Azithromycin], the ThS net change is listed as 467.
In turn, `CCC(C)C(N)C1=NC(C(=O)N[C@@H](CC(C)C)C(=O)N[C@H](CCC(=O)O)C(=O)N[C@H](C(=O)N[C@H]2CCCCNC(=O)[C@H](CC(N)=O)NC(=O)[C@@H](CC(=O)O)NC(=O)[C@H](Cc3cnc[nH]3)NC(=O)[C@@H](Cc3ccccc3)NC(=O)[C@H]([C@@H](C)CC)NC(=O)[C@@H](CCCN)NC2=O)[C@@H](C)CC)CS1` (stereo partly drawn) [Bacitracin] (X2-L[dE]IK[dOrn]I[dF]H[dD]N; lactam 4-C) gave a ThS net change of 479.
With `O=C(CCCN1CCC(n2c(O)nc3ccccc32)CC1)c1ccc(F)cc1` [Benperidol], the ThS net change was found to be 416.
`CC1(C)S[C@@H]2[C@H](NC(=O)Cc3ccccc3)C(=O)N2[C@H]1C(=O)O.CC1(C)S[C@@H]2[C@H](NC(=O)Cc3ccccc3)C(=O)N2[C@H]1C(=O)O.c1ccc(CNCCNCc2ccccc2)cc1` [Benzathine benzylpenicillin] displayed a ThS net change of 455.
Same read-out and setting: the same measure for `CCc1oc2ccccc2c1C(=O)c1cc(Br)c(O)c(Br)c1` [Benzbromarone]: 498; for `CN1[C@@H]2CC[C@H]1C[C@@H](OC(c1ccccc1)c1ccccc1)C2` [Benztropine mesylate]: 419.
Regarding `CC(C)COCC(CN(Cc1ccccc1)c1ccccc1)N1CCCC1` (stereo not drawn) [Bepridil hydrochloride], the ThS net change is on record as 418.
Molecule `CC(C[N+](C)(C)C)OC(N)=O` (stereo not drawn) [Bethanechol chloride] showed a ThS net change of 418.
In turn, `c1ccc(-c2ccc(C(c3ccccc3)n3ccnc3)cc2)cc1` (stereo not drawn) [Bifonazole] yielded a ThS net change of 432.
For the molecule `COc1ccccc1Oc1c(NS(=O)(=O)c2ccc(C(C)(C)C)cc2)nc(-c2ncccn2)nc1OCCO` [Bosentan], the ThS net change stood at 453.
